Key:
D(2) dopamine receptor [1] = biological target: T1, D(2) dopamine receptor (Homo sapiens, UniProt P14416); assay: biochemical; assay type: cell-based, ovary
D(3) dopamine receptor [2] = biological target: T2, D(3) dopamine receptor (Homo sapiens, UniProt P35462); assay: biochemical
D(2) dopamine receptor [3] = biological target: T1, D(2) dopamine receptor; assay: High binding affinity towards human dopamine receptor 2 (long) expressed in Chinese hamster ovary cells using [3H]spiperone (0.5 nM) as radioligand; assay type: cell-based
D(4) dopamine receptor [4] = biological target: T3, D(4) dopamine receptor (Homo sapiens, UniProt P21917); assay: biochemical; assay type: cell-based, ovary
T3 sequence (P21917 whole entry): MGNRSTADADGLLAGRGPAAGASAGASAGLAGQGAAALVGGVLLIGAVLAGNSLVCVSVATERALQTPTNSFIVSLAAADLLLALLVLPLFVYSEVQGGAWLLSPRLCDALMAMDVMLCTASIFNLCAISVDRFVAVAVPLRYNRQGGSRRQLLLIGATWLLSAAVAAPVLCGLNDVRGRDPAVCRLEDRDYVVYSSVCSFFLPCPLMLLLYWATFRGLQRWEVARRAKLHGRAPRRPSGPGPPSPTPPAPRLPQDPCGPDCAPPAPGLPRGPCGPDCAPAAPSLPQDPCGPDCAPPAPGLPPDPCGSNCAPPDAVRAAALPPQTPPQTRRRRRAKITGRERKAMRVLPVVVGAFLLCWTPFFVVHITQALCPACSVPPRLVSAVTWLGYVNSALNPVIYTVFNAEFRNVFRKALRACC

D(4) dopamine receptor [5] = biological target: T3, D(4) dopamine receptor; assay: biochemical; assay type: cell-based, ovary; remark: listed apart in the source
D(1A) dopamine receptor [6] = biological target: T4, D(1A) dopamine receptor (Sus scrofa, UniProt P50130); assay: Binding affinity (low) towards porcine dopamine receptor 1 by using [3H]-SCH- 23390 (0.3 nM) as radioligand
D(2) dopamine receptor [7] = biological target: T1, D(2) dopamine receptor; assay: Low binding affinity towards human dopamine receptor 2 (short) expressed in Chinese hamster ovary cells using [3H]spiperone (0.5 nM) as radioligand; assay type: cell-based
D(3) dopamine receptor [8] = biological target: T2, D(3) dopamine receptor; assay: Binding affinity towards dopamine D3 receptor
D(2) dopamine receptor [9] = biological target: T1, D(2) dopamine receptor; assay: Low binding affinity towards human dopamine receptor 2 (long) expressed in Chinese hamster ovary cells using [3H]spiperone (0.5 nM) as radioligand; assay type: cell-based
D(3) dopamine receptor [10] = biological target: T2, D(3) dopamine receptor; assay: Effective concentration against dopamine D3 receptor
D(3) dopamine receptor [11] = biological target: T2, D(3) dopamine receptor; assay: biochemical; remark: listed apart in the source
D(2) dopamine receptor [12] = biological target: T1, D(2) dopamine receptor; assay: Binding affinity towards human dopamine receptor 2 (long) expressed in Chinese hamster ovary cells using [3H]spiperone (0.5 nM) as radioligand; assay type: cell-based
D(1A) dopamine receptor [13] = biological target: T4, D(1A) dopamine receptor; assay: Binding affinity towards porcine dopamine receptor 1 against radioligand [3H]-SCH- 23390
D(4) dopamine receptor [14] = biological target: T3, D(4) dopamine receptor; assay: Binding affinity towards human dopamine receptor 4.4 expressed in Chinese hamster ovary cells using [3H]spiperone (0.5 nM) as radioligand; assay type: cell-based
D(2) dopamine receptor [15] = biological target: T1, D(2) dopamine receptor; assay: Binding affinity towards human dopamine receptor 2 (short) expressed in Chinese hamster ovary cells using [3H]spiperone (0.5 nM) as radioligand; assay type: cell-based
D(3) dopamine receptor [16] = biological target: T2, D(3) dopamine receptor; assay: Binding affinity towards human dopamine receptor 3 expressed in Chinese hamster ovary cells using [3H]spiperone (0.5 nM) as radioligand; assay type: cell-based
D(1A) dopamine receptor [17] = biological target: T4, D(1A) dopamine receptor; assay: Binding affinity (low) towards porcine dopamine receptor 1 against radioligand [3H]-SCH- 23390

T1 sequence (P14416 whole entry): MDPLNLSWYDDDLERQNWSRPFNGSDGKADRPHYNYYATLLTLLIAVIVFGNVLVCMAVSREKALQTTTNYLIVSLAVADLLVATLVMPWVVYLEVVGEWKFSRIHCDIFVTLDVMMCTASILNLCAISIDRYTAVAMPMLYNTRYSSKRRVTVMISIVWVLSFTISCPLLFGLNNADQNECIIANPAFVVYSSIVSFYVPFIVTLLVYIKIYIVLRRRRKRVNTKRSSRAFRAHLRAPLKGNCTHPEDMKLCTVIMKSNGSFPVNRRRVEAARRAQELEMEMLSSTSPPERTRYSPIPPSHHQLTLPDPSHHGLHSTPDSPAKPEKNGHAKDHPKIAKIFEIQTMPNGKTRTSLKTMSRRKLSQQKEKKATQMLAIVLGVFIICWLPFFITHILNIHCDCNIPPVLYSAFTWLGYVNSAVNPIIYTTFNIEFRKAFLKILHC
T4 sequence (P50130 whole entry): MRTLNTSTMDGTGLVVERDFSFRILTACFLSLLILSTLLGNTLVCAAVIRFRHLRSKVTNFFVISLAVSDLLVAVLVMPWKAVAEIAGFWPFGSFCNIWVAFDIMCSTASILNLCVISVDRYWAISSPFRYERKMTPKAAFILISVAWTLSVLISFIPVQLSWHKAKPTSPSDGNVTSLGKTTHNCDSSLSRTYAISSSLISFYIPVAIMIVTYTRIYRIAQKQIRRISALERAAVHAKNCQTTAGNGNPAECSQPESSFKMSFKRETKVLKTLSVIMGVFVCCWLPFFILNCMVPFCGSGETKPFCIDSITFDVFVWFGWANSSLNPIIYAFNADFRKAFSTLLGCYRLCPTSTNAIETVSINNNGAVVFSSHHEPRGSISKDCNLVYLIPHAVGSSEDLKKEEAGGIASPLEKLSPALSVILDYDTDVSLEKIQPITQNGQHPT
T2 sequence (P35462 whole entry): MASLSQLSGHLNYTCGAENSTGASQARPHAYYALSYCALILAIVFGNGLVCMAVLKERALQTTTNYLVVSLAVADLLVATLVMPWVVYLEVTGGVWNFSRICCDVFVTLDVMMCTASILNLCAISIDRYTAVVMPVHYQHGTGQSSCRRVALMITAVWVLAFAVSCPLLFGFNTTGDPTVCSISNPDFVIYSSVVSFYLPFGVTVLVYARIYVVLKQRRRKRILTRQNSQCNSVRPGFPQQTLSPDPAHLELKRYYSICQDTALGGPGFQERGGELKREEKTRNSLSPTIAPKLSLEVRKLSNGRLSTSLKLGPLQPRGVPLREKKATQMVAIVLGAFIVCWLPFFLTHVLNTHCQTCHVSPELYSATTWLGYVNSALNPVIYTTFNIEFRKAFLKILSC

Ki (D(2) dopamine receptor [1])	Ki (D(3) dopamine receptor [2])	Ki (D(2) dopamine receptor [3])	Ki (D(4) dopamine receptor [4])	Ki (D(4) dopamine receptor [5])	Ki (D(1A) dopamine receptor [6])	Ki (D(2) dopamine receptor [7])	pKi (D(3) dopamine receptor [8])	Ki (D(2) dopamine receptor [9])	EC50 (D(3) dopamine receptor [10])	Ki (D(3) dopamine receptor [11])	Ki (D(2) dopamine receptor [12])	Ki (D(1A) dopamine receptor [13])	Ki (D(4) dopamine receptor [14])	Ki (D(2) dopamine receptor [15])	Ki (D(3) dopamine receptor [16])	Ki (D(1A) dopamine receptor [17])	SMILES
0.25 µM	0.11 µM	0.18 µM	0.058 µM	1.7 µM	> 20 µM	10 µM	8.4	15 µM	0.0034 µM	0.004 µM							CCCN(CCC)[C@H]1CCn2nccc2C1
											5.9 µM	> 20 µM	14 µM	4 µM	12 µM		CCCN(CCC)C1CCn2ncc(C=O)c2C1 (stereo not given)
											> 20 µM	> 20 µM	> 20 µM	> 20 µM	17 µM		CCCN(CCC)C1CCn2ncc(C(=O)OC)c2C1 (stereo not given)
											> 20 µM	> 20 µM	13 µM	> 20 µM	2.7 µM		CCCN(CCC)[C@@H]1CCn2nccc2C1
											> 20 µM	> 20 µM	16 µM	> 20 µM	4 µM		CCCN(CCC)C1CCn2ncc(CO)c2C1 (stereo not given)
											> 100 µM	> 20 µM	90 µM	> 100 µM	12 µM		CCCNC1CCn2ncc(C(=O)OC)c2C1 (stereo not given)
0.21 µM	0.23 µM	0.12 µM	0.2 µM	6.4 µM	> 20 µM	12 µM		> 20 µM	0.0045 µM	0.0061 µM							CCCN(CCC)C1CCn2ncc(Cl)c2C1 (stereo not given)
0.16 µM	0.2 µM	0.22 µM	0.058 µM	1.6 µM		8.5 µM		18 µM		0.0067 µM						> 20 µM	CCCN(CCC)C1CCn2nccc2C1 (racemic)

Reference: ChEMBL document CHEMBL1141074, “Pharmacophore-guided drug discovery investigations leading to bioactive 5-aminotetrahydropyrazolopyridines. Implications for the binding mode of heterocyclic dopamine D3 receptor agonists” (J Med Chem, 2005)
